Molecules are shown by their SMILES.

Holding throughout (type): in vivo
One assay has as its system doublecortin (DCX). Put plainly: Ex.4 therapeutic HIE rat model: doublecortin staining. The protocol: The sections were heated in 10 mmol/L citrate buffer (pH 6.0) at 100° C. for 10 minutes. Endogenous peroxidase activity was blocked with 3% hydrogen peroxide for 10 minutes and after a second blocking with 5% normal goat serum, the sections were incubated with anti-doublecortin (DCX) antibody, diluted 1:1000 (rabbit polyclonal antibody; Abcam, Cambridge, UK) and anti-vascular endothelial growth factor (VEGF) antibody, diluted 1:100 (mouse monoclonal antibody; Abcam, Cambridge, UK) overnight at 4° C. After rinsing, Alexa Fluor® goat anti-rabbit, diluted 1:1000 and Alexa Fluor® goat anti-mouse, diluted 1:1000 (Invitrogen Inc., Ghent, Belgium) were added and sections were incubated 1 h at room temperature. Mounting medium containing 4′,6-diamidino-2-phenylindole (DAPI) for fluorescent studies was used (Vector Laboratories). Samples were analyzed with the aid of a microscope (Olympus Vanox AHBT3, Olympus), and the ImageJ software (NIH). The percentage of positively stained cells was quantified as a sum of positively stained either DCX or VEGF cells divided by the total number of DAPI positive cells expressed in percentage.
(§1) To study the therapeutic effect of estetrol, newborn rat pups were assigned to one of the following 6 groups at postnatal day 7: sham group (n=29), vehicle group (n=20), 1 mg/kg E4 group (n=16), 5 mg/kg E4 group (n=19), 10 mg/kg day E4 (n=17) and 50 mg/kg day E4 group (n=15). At postnatal day 7 animals were anesthetized with isoflurane (induction, 3.0%; maintenance, 1.5%), and the rat pups from vehicle and E4 groups passed through surgery encompassing left common carotid artery double ligation and cut. After surgery, the pups were returned to their dams and allowed to recover for 1 hour. The pups were then placed in a humidified hypoxic in vivo cabinet (CoyLab). Hypoxia was produced by the inhalation of 11%-8% of oxygen balanced by nitrogen at decreased concentration of oxygen for 20 minutes, followed by inhalation of 8% oxygen and 92% nitrogen at constant concentration for 35 minutes. All the manipulations were performed at 37° C.
Upon retrieval from the hypoxia chamber the rat pups were injected intraperitoneally either by vehicle (vehicle group) or by E4 (1 mg/kg, 5 mg/kg, 10 mg/kg or 50 mg/kg) in accordance to the group assignment. The animals from the sham group went through similar procedures but proceeded neither left common carotid artery ligation and cut followed by hypoxia nor vehicle or estetrol administration. Rat pups recovered with their dams until being sacrificed at postnatal day 14.

The test system of the next assay is S100B. Put plainly: Ex.4 therapeutic HIE rat model: blood serum S100B ELISA. The settings on record: estetrol treated animals (1, 5, 10, 50 mg/kg single ip dose after HI); PND14; vs vehicle. As for the experimental part:
Blood was withdrawn, centrifuged and the serum samples were stored at −80° C.
ELISAs for detecting the brain damage markers S100B protein (Catalog# CSB-E08066r, Cusabio Biotech Co., LTD, China), and glial fibrillary acidic protein (GFAP) (Catalog# E90068Ra, Uscn Life sciences Inc., China) in blood serum samples were performed according to the manufacturers' recommendations.
as §1, with “C. […]” for “C.”
(In general: ELISA stands for enzyme-linked immunosorbent assay.)

The test system of assay [1] is Microtubule-associated protein 2 (MAP2). Put plainly: Ex.8 therapeutic HIE rat model: MAP2 staining. The protocol:
To study the therapeutic effect of estetrol, newborn rat pups were assigned to one of the following 14 groups at postnatal day 7 (FIG. 23(B)): Sham group (n=12), Vehicle (n=15), 5 mg/kg/day E4 (n=11), 10 mg/kg/day E4 (n=11), 5 mg/kg/day E4+1.6 mg/kg/day PROG (n=11), 10 mg/kg/day E4+1.6 mg/kg/day PROG (n=11), 5 mg/kg/day E4+16 mg/kg/day PROG (n=11), 10 mg/kg/day E4+16 mg/kg/day PROG (n=13), 5 mg/kg/day E4+136 ng//kg/day E2 (n=11), 10 mg/kg/day E4+136 ng/kg/day E2 (n=11), 5 mg/kg/day E4+1.6 mg/kg/day PROG+136 ng/kg/day E2 (n=12), 10 mg/kg/day E4+1.6 mg/kg/day PROG+136 ng/kg/day E2 (n=11), 5 mg/kg/day E4+16 mg/kg/day PROG+136 ng/kg/day E2 (n=11), 10 mg/kg/day E4+16 mg/kg/day PROG+136 ng/kg/day (n=12) groups. […] After surgery, the pups were returned to their dams and allowed to recover for 1 hour. The pups were then placed in a humidified hypoxic in vivo cabinet (CoyLab). […]
The brain sections were processed for immunohistochemical detection of neuronal cytoskeletal disruption. […] Samples were analyzed with the aid of an image scanner (Nanozoomer Virtual Microscopy, Hamamatsu, Tokyo, Japan) and the ImageJ software (NIH, US). The positive areas in the ipsilateral and contralateral hemispheres were measured. The ratio of the MAP2 positive areas was calculated as the MAP2 positive area of the ipsilateral hemisphere divided by the MAP2 positive area of the contralateral hemisphere. […]

Turning to `C[C@]12CC[C@@H]3c4ccc(O)cc4CC[C@H]3[C@@H]1[C@@H](O)[C@@H](O)[C@@H]2O` [E4, 1,3,5(10)-estratrien-3,15α,16α,17β-tetrol], the “percentage of DCX positively stained cells” value was 45.2±3.339% in the assay on doublecortin (DCX) (5 mg/kg E4 single ip dose after HI, cortex); 37.1±3.84 in the assay with doublecortin (DCX) (10 mg/kg E4 single ip dose after HI, CA1); 42.5±5.986% with doublecortin (DCX) (10 mg/kg E4 single ip dose after HI, CA2/CA3); 49.4±4.949% with doublecortin (DCX) (10 mg/kg E4 single ip dose after HI, cortex); 37.3±4.784% in the assay on doublecortin (DCX) (50 mg/kg E4 single ip dose after HI, CA1); 49.6±3.11% in the assay with doublecortin (DCX) (50 mg/kg E4 single ip dose after HI, cortex). Also, the DCX staining result in the assay on doublecortin (DCX) (E4 1, 5, 10, 50 mg/kg single ip dose after HI, DG, among study groups) is “neither DCX nor VEGF staining was significantly different”. For the same molecule, the “expression of S100B protein in blood serum” value with S100B is “significantly lower expression”. Further, the figures for the “MAP-2 positive area ratio” value in assay [1] (5 mg/kg/day E4) and in assay [1] (10 mg/kg/day E4) were 0.98±0.02 and 0.97±0.04, respectively.

Source of the values: US9808470B2, “Estrogenic components for use in the treatment of neurological disorders” (UNIVERSITE DE LIEGE, priority 2012, dated 2017).
